Experimental data: patent US12662491B2 (Redona Therapeutics, Inc., priority 2020, dated 2026)

Biological target: T1, Zcchc11 enzyme (Homo sapiens, UniProt Q5TAX3)
T1 construct: made in house; host or cells: HEK293 cells (Zcchc11); E. coli Rosetta II (LIN28A)
T1 sequence (Q5TAX3 212-1420): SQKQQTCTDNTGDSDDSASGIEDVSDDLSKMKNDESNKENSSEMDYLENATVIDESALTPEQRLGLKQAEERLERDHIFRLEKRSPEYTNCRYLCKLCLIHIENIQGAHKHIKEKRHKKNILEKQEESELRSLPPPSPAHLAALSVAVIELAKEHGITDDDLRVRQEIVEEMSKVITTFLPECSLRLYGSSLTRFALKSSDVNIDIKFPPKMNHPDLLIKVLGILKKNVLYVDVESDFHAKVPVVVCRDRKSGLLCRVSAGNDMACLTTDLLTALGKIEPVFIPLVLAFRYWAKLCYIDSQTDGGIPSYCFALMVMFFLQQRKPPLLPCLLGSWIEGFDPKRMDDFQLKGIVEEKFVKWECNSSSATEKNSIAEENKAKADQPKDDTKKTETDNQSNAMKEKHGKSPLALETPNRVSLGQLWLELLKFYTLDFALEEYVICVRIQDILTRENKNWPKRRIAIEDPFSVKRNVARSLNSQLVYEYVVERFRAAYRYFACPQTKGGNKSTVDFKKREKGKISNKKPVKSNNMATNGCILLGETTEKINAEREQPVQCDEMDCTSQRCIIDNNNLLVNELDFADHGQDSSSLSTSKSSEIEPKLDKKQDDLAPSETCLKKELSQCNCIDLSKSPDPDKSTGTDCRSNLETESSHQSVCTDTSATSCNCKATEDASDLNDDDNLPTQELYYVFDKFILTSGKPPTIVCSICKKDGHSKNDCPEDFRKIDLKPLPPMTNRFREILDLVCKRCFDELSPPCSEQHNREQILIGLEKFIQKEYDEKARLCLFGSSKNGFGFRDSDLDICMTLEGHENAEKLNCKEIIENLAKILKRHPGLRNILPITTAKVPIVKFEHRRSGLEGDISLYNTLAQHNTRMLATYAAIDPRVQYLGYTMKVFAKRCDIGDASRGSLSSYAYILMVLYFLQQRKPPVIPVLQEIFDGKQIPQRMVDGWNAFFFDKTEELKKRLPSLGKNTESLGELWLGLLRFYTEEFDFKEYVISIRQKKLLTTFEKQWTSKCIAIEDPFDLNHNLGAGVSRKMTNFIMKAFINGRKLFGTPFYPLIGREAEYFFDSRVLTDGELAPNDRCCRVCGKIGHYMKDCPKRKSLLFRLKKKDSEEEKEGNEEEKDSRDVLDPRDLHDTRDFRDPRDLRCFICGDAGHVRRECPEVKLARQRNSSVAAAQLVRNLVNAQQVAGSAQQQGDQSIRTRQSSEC
Assay: TUTase assay (Zcchc11 assay, Lin28a-dependent polyuridylation of pre-let-7)
Type: biochemical
Details: Lin28a-dependent Zcchc11 (Z11) TUTase assay; read-out: Potency Lin28a-dep Z11 IC50
Method in brief: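 Readout: time-dependent quench of 5′-fluorescein pre-let-7 (2 nM) as 3′-rhodamine A20 probe anneals to poly(U) tails. Enzyme 0.2 nM Zcchc11 (res. 212-1420), LIN28A 10 nM, UTP 5 uM; pH 7.3 HEPES, 150 mM KCl, 5 mM MgCl2, RT. 4-parameter IC50; 100% = DMSO, 0% = no UTP.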

SMILES | IC50
CN(C)[C@@H]1CCN(c2ccc(-n3cc(C(=O)O)c(=O)c4cc(C#N)c(N5CCC[C@@H]5COc5ncccc5Cl)cc43)cn2)C1 [Example 563, 7-((R)-2-(((3-chloropyridin-2-yl)oxy)methyl)pyrrolidin-1-yl)-6-cyano-1-(6-((R)-3-(dimethylamino)pyrrolidin-1-yl)pyridin-3-yl)-4-oxo-1,4-dihydroquinoline-3-carboxylic acid] | ≤ 1000 nM
CN(C)C1CN(c2cc(-n3cc(C(=O)O)c(=O)c4cc(Cl)c(N5CCC[C@@H]5COc5ccccn5)cc43)ccn2)C1 [Example 564, (R)-6-chloro-1-(2-(3-(dimethylamino)azetidin-1-yl)pyridin-4-yl)-4-oxo-7-(2-((pyridin-2-yloxy)methyl)pyrrolidin-1-yl)-1,4-dihydroquinoline-3-carboxylic acid] | ≤ 1000 nM
O=C(O)c1cn(-c2c[nH]cn2)c2cc(N3CCC[C@@H]3COc3ncccc3Cl)c(Cl)cc2c1=O [Example 565, (R)-6-chloro-7-(2-(((3-chloropyridin-2-yl)oxy)methyl)pyrrolidin-1-yl)-1-(1H-imidazol-4-yl)-4-oxo-1,4-dihydroquinoline-3-carboxylic acid] | ≤ 1000 nM
Cn1cnc(-n2cc(C(=O)O)c(=O)c3cc(Cl)c(N4CCC[C@@H]4COc4ncccc4Cl)cc32)c1 [Example 566, (R)-6-chloro-7-(2-(((3-chloropyridin-2-yl)oxy)methyl)pyrrolidin-1-yl)-1-(1-methyl-1H-imidazol-4-yl)-4-oxo-1,4-dihydroquinoline-3-carboxylic acid] | ≤ 1000 nM
Cn1cncc1-n1cc(C(=O)O)c(=O)c2cc(Cl)c(N3CCC[C@@H]3COc3ncccc3Cl)cc21 [Example 567, (R)-6-chloro-7-(2-(((3-chloropyridin-2-yl)oxy)methyl)pyrrolidin-1-yl)-1-(1-methyl-1H-imidazol-5-yl)-4-oxo-1,4-dihydroquinoline-3-carboxylic acid] | ≤ 1000 nM
Cn1ccnc1-n1cc(C(=O)O)c(=O)c2cc(Cl)c(N3CCC[C@@H]3COc3ncccc3Cl)cc21 [Example 568, (R)-6-chloro-7-(2-(((3-chloropyridin-2-yl)oxy)methyl)pyrrolidin-1-yl)-1-(1-methyl-1H-imidazol-2-yl)-4-oxo-1,4-dihydroquinoline-3-carboxylic acid] | ≤ 1000 nM
N#CCn1cc(C(=O)O)c(=O)c2cc(Cl)c(N3CCC[C@@H]3COc3ncccc3Cl)cc21 [Example 569, (R)-6-chloro-7-(2-(((3-chloropyridin-2-yl)oxy)methyl)pyrrolidin-1-yl)-1-(cyanomethyl)-4-oxo-1,4-dihydroquinoline-3-carboxylic acid] | ≤ 1000 nM
CN(C)CCNc1ccc(-n2cc(C(=O)O)c(=O)c3cc(C#N)c(N4CCC[C@@H]4COc4ncccc4Cl)cc32)cn1 [Example 570, (R)-7-(2-(((3-chloropyridin-2-yl)oxy)methyl)pyrrolidin-1-yl)-6-cyano-1-(6-((2-(dimethylamino)ethyl)amino)pyridin-3-yl)-4-oxo-1,4-dihydroquinoline-3-carboxylic acid] | ≤ 1000 nM
N#Cc1cc2c(=O)c(C(=O)O)cn(-c3cnn(CCN4CCC4)c3)c2cc1N1CCC[C@@H]1COc1ncccc1Cl [Example 571, (R)-1-(1-(2-(azetidin-1-yl)ethyl)-1H-pyrazol-4-yl)-7-(2-(((3-chloropyridin-2-yl)oxy)methyl)pyrrolidin-1-yl)-6-cyano-4-oxo-1,4-dihydroquinoline-3-carboxylic acid] | ≤ 1000 nM
CN(C)C1CN(c2ccc(-n3cc(C(=O)O)c(=O)c4cc(C#N)c(N5C[C@@H](F)C[C@@H]5COc5ncccc5Cl)cc43)cn2)C1 [Example 572, 7-((2R,4S)-2-(((3-chloropyridin-2-yl)oxy)methyl)-4-fluoropyrrolidin-1-yl)-6-cyano-1-(6-(3-(dimethylamino)azetidin-1-yl)pyridin-3-yl)-4-oxo-1,4-dihydroquinoline-3-carboxylic acid] | ≤ 1000 nM
Cn1cc(Cn2cc(C(=O)O)c(=O)c3cc(Cl)c(N4CCC[C@@H]4COc4ncccc4Cl)cc32)cn1 [Example 573, (R)-6-chloro-7-(2-(((3-chloropyridin-2-yl)oxy)methyl)pyrrolidin-1-yl)-1-((1-methyl-1H-pyrazol-4-yl)methyl)-4-oxo-1,4-dihydroquinoline-3-carboxylic acid] | ≤ 1000 nM
NC(=O)Cn1cc(C(=O)O)c(=O)c2cc(F)c(N3CCC[C@@H]3COc3ccccn3)cc21 [Example 574, (R)-1-(2-amino-2-oxoethyl)-6-fluoro-4-oxo-7-(2-((pyridin-2-yloxy)methyl)pyrrolidin-1-yl)-1,4-dihydroquinoline-3-carboxylic acid] | 1000 to 10000 nM
CC(C)(O)c1ccc(-n2cc(C(=O)O)c(=O)c3cc(C#N)c(N4CCC[C@@H]4COc4ncccc4Cl)cc32)cn1 [Example 575, (R)-7-(2-(((3-chloropyridin-2-yl)oxy)methyl)pyrrolidin-1-yl)-6-cyano-1-(6-(2-hydroxypropan-2-yl)pyridin-3-yl)-4-oxo-1,4-dihydroquinoline-3-carboxylic acid] | ≤ 1000 nM
O=C(O)c1cn(Cc2ccccn2)c2cc(N3CCC[C@@H]3COc3ncccc3Cl)c(Cl)cc2c1=O [Example 576, (R)-6-chloro-7-(2-(((3-chloropyridin-2-yl)oxy)methyl)pyrrolidin-1-yl)-4-oxo-1-(pyridin-2-ylmethyl)-1,4-dihydroquinoline-3-carboxylic acid] | ≤ 1000 nM
O=C(O)c1cn(Cc2ccncc2)c2cc(N3CCC[C@@H]3COc3ncccc3Cl)c(Cl)cc2c1=O [Example 577, (R)-6-chloro-7-(2-(((3-chloropyridin-2-yl)oxy)methyl)pyrrolidin-1-yl)-4-oxo-1-(pyridin-4-ylmethyl)-1,4-dihydroquinoline-3-carboxylic acid] | 1000 to 10000 nM
CN(C)C1CN(c2ccc(-n3cc(C(=O)O)c(=O)c4cc(Cl)c(N5CCC[C@@H]5CCc5ccccn5)cc43)cn2)C1 [Example 578, (R)-6-chloro-1-(6-(3-(dimethylamino)azetidin-1-yl)pyridin-3-yl)-4-oxo-7-(2-(2-(pyridin-2-yl)ethyl)pyrrolidin-1-yl)-1,4-dihydroquinoline-3-carboxylic acid] | 1000 to 10000 nM
CN(C)C1CN(c2ccc(-n3cc(C(=O)O)c(=O)c4cc(Cl)c(N5CCC[C@@H]5COc5ccnn5C)cc43)cn2)C1 [Example 580, (R)-6-chloro-1-(6-(3-(dimethylamino)azetidin-1-yl)pyridin-3-yl)-7-(2-(((1-methyl-1H-pyrazol-5-yl)oxy)methyl)pyrrolidin-1-yl)-4-oxo-1,4-dihydroquinoline-3-carboxylic acid] | ≤ 1000 nM
O=C(O)c1cn(Cc2cn[nH]c2)c2cc(N3CCC[C@@H]3COc3ncccc3Cl)c(Cl)cc2c1=O [Example 581, (R)-1-((1H-pyrazol-4-yl)methyl)-6-chloro-7-(2-(((3-chloropyridin-2-yl)oxy)methyl)pyrrolidin-1-yl)-4-oxo-1,4-dihydroquinoline-3-carboxylic acid] | 1000 to 10000 nM
CN(C)CCn1cc(Cn2cc(C(=O)O)c(=O)c3cc(Cl)c(N4CCC[C@@H]4COc4ncccc4Cl)cc32)cn1 [Example 582, (R)-6-chloro-7-(2-(((3-chloropyridin-2-yl)oxy)methyl)pyrrolidin-1-yl)-1-((1-(2-(dimethylamino)ethyl)-1H-pyrazol-4-yl)methyl)-4-oxo-1,4-dihydroquinoline-3-carboxylic acid] | 1000 to 10000 nM
CC(c1ccccc1)n1cc(C(=O)O)c(=O)c2cc(Cl)c(N3CCC[C@@H]3COc3ncccc3Cl)cc21 (stereo partly drawn) [Example 583, 6-chloro-7-((R)-2-(((3-chloropyridin-2-yl)oxy)methyl)pyrrolidin-1-yl)-4-oxo-1-(1-phentylethyl)-1,4-dihydroquinoline-3-carboxylic acid] | 1000 to 10000 nM
Cc1nc(N2CC(N(C)C)C2)ccc1-n1cc(C(=O)O)c(=O)c2cc(Cl)c(N3CCC[C@@H]3COc3ncccc3Cl)cc21 [Example 584, (R)-6-chloro-7-(2-(((3-chloropyridin-2-yl)oxy)methyl)pyrrolidin-1-yl)-1-(6-(3-(dimethylamino)azetidin-1-yl)-2-methylpyridin-3-yl)-4-oxo-1,4-dihydroquinoline-3-carboxylic acid] | ≤ 1000 nM
